In the NIST ThermoML archive (doi:10.1021/je600559q):
± gives the expanded uncertainty stated by the source.

Experiments:
[1] = Liquid
[2] = refractive index (Na D-line) (dimensionless); details: 293.1 K; 101.33 kPa; Liquid; Standard Abbe refractometry

CC1CCCCC1O (configuration not stated) [2-methylcyclohexanol]
[1]
Details	vapor or sublimation pressure [kPa]
361.23 K	5.394 ± 0.02
362.23 K	5.668 ± 0.02
363.13 K	5.919 ± 0.02
365.7 K	6.693 ± 0.02
367.68 K	7.345 ± 0.021
369.92 K	8.152 ± 0.021
371.63 K	8.817 ± 0.021
373.16 K	9.448 ± 0.021
375.31 K	10.4 ± 0.021
377.78 K	11.58 ± 0.021
380.39 K	12.94 ± 0.021
383.11 K	14.52 ± 0.022
385.95 K	16.32 ± 0.022
386.1 K	16.42 ± 0.022
389.56 K	18.86 ± 0.022
393.07 K	21.65 ± 0.023
395.88 K	24.1 ± 0.023
398.52 K	26.6 ± 0.024
402.67 K	30.99 ± 0.024
406.67 K	35.73 ± 0.025
410.73 K	41.11 ± 0.026
414 K	45.9 ± 0.027
418.26 K	52.85 ± 0.029
424.63 K	64.66 ± 0.033
439.57 K	100.47 ± 0.036

Details	refractive index
[2]	1.46313 ± 0.00072

CC(=O)OC1CCCCC1C (configuration not stated) [2-methylcyclohexyl acetate]
[1]
Details	vapor or sublimation pressure [kPa]
368.01 K	5.32 ± 0.02
369.86 K	5.758 ± 0.02
371.87 K	6.261 ± 0.02
373.83 K	6.787 ± 0.02
376.56 K	7.594 ± 0.021
379.93 K	8.675 ± 0.021
383.36 K	9.912 ± 0.021
386.65 K	11.22 ± 0.021
391.27 K	13.32 ± 0.021
393.39 K	14.38 ± 0.021
394.15 K	14.77 ± 0.021
398.42 K	17.2 ± 0.022
401.6 K	19.19 ± 0.022
403.3 K	20.34 ± 0.022
405.73 K	22.08 ± 0.022
410.71 K	26.01 ± 0.023
415.57 K	30.39 ± 0.024
418.74 K	33.54 ± 0.024
421.2 K	36.16 ± 0.025
423.84 K	39.17 ± 0.025
426.54 K	42.45 ± 0.026
429.41 K	46.21 ± 0.026
433.2 K	51.55 ± 0.028
440.4 K	63.09 ± 0.031
458 K	100.13 ± 0.034

Details	refractive index
[2]	1.43896 ± 0.00072
